# Measurements taken from patent publication US11420966B2 (ACLARIS THERAPEUTICS, INC., priority 2019, dated 2022).
# Where a name gives a salt, the structure may show the parent alone.
# What was measured:
# JAK1 = JAK1 (Homo sapiens (Human), UniProt P23458); test: JAK1 enzyme activity assay (Thermo Fisher SelectScreen, Z-lyte); assay type: biochemical; conditions: read-out: JAK1 Inhibition IC50
# Method: (§1) JAK1, JAK2, JAK3, and Tyk-2 Enzyme Activity Assays
# (§2) The inhibitory potency of candidate compounds of JAK1, JAK2, and Tyk-2 was done at Thermo Fisher Scientific in their Selectscreen using a Z-lyte assay. Following are the assay details for each enzyme.
# JAK: The 2×JAK-enzyme/Tyr 06 mixture is prepared in 50 mM HEPES pH 6.5, 0.01% BRIJ-35, 10 mM MgCl2, 1 mM EGTA, 0.02% NaN3. The final 10 μL of the Kinase Reaction consists of 21.2-91.5 ng JAK and 2 M Tyr 06 in 50 mM HEPES pH 7.0, 0.01% BRIJ-35, 10 mM MgCl2, 1 mM EGTA, 0.01% NaN3. After the one hour Kinase Reaction incubation, 5 μL of a 1:128 dilution of Development Reagent is added.
# (§3) Data reduction for JAK1, JAK2 and TYK2 is done the same, independent of the enzyme run. In summary, background signal is defined in the absence of enzyme and uninhibited signal is defined in the presence of vehicle (2% DMSO) alone. Compounds were evaluated in an 11 point dose-response ranging from […] to 0.34 nM. IC50 values of compounds are determined using a 4 parameter logistical fit of emission ratio as a function of the concentration of compound.
# JAK2 = JAK2 (Homo sapiens (Human), UniProt O60674); test: JAK2 enzyme activity assay (Thermo Fisher SelectScreen, Z-lyte); assay type: biochemical; conditions: read-out: JAK2 Inhibition IC50
# Method: as §1, §2
# JAK2: The 2×JAK2/Tyr 06 mixture is prepared in 50 mM HEPES pH 7.5, 0.01% BRIJ-35, 10 mM MgCl2, 1 mM EGTA. The final 10 μL Kinase Reaction consists of 0.12-0.5 ng JAK2 and 2 M Tyr 06 in 50 mM HEPES pH 7.5, 0.01% BRIJ-35, 10 mM MgCl2, 1 mM EGTA. After the one hour Kinase Reaction incubation, 5 μL of a 1:128 dilution of Development Reagent A is added.
# as §3
# JAK3 (a.a. 781-1124) = JAK3 (a.a. 781-1124) (Homo sapiens (Human), UniProt P52333); test: JAK3 enzyme activity assay (SRCtide phosphorylation, Caliper); assay type: biochemical; conditions: 1 uM ATP; read-out: JAK3 Inhibition IC50
# Method: as §1
# Kinase reactions were run in a 384-well Greiner plate with 2% final DMSO concentration under the buffer conditions of 20 mM HEPES, pH 7.5, 10 mM MgCl2, 0.01% BSA, and 0.0005% Tween-20. The kinase reaction components were 2.5 nM JAK3, 1 μM SRCtide peptide and 1 uM ATP. Examples were tested in dose-response starting at 2 M (11 concentrations, 3-fold serial dilution, duplicate reactions). The reactions were incubated at room temperature for 40 minutes, then stopped by adding a 1:1 volume of 30 mM EDTA in 20 mM HEPES, pH 7.5 (15 mM EDTA final). After the reaction was stopped, the phosphorylated and unphosphorylated peptides were separated and quantified using a Caliper LC3000/EZ-Reader system and HTS Well Analyzer Software (Caliper, A PerkinElmer Company, Hopkinton, Mass.). GraFit (Erithacus Software Ltd., Horley, U.K.) was used to calculate inhibitor potency by fitting dose-response data to the 4-parameter logistical IC50 equation.
# Tyk-2 = Tyk-2 (Homo sapiens (Human), UniProt P29597); test: Tyk-2 enzyme activity assay (Thermo Fisher SelectScreen, Z-lyte); assay type: biochemical; conditions: read-out: Tyk-2 Inhibition IC50
# Method: as §1, §2
# TYK2: The 2×TYK2/Tyr 03 mixture is prepared in 50 mM HEPES pH 6.5, 0.01% BRIJ-35, 10 mM MgCl2, 1 mM EGTA, 0.02% NaN3. The final 10 μL Kinase Reaction consists of 3.75-15 ng TYK2 and 2 M Tyr 03 in 50 mM HEPES pH 7.0, 0.01% BRIJ-35, 10 mM MgCl2, 1 mM EGTA, 0.01% NaN3. After the one hour KinaseReaction incubation, 5 μL of a 1:4096 dilution of Development Reagent A is added.
# as §3
# [1] = tested on: IL-2 stimulated STAT5 phosphorylation on Tyr694 (JAK1/3); test: JAK1/3 cellular target modulation: IL-2 stimulated phospho-STAT5 in PBMC; assay type: cell-based; conditions: human PBMC, IL-2 25 ng/ml; read-out: IL2-STAT5 IC50
# Description: (§4) JAK Cellular Target Modulation Assays
# (§5) Target modulation was based upon the ability of a compound to inhibit JAK isoform specific phosphorylation of selected substrates. IL-2 stimulated STAT5 phosphorylation on Tyr694 was used to assess JAK1/3 compound selectivity. GM-CSF stimulated STAT5 phosphorylation on Tyr694 was used to assess JAK2 compound selectivity. IFNγ stimulated STAT1 phosphorylation on Tyr701 was used to assess JAK1/2 compound selectivity. IL-12 stimulated STAT4 phosphorylation on Tyr693 was used to assess JAK2/TYK2 compound selectivity. For all four assays, human PBMC from frozen stocks were thawed, pelleted, resuspended in complete media (90% RPMI, 10% heat inactivated FBS, 10 mM HEPES, 47 μM 2-ME, pen/strep) and placed in wells of a 96 well V-bottom plate at 200,000 per well in 120 μl complete media. Compounds were added as 15 μl per well of 10× working stock solutions in complete media with 1% DMSO (or medium with 1% DMSO for controls) and placed on a plate shaker in a 37° C. incubator with 5% CO2 for 1 hour with gentle shaking (setting of 3). Stimulation used the addition of soluble cytokines. For the JAK1/3 phospho-STAT5 assay, 15 μl of 10× working stock recombinant human IL-2 was added to a final concentration of 25 ng/ml. For the JAK2 phospho-STAT5 assay, 15 μl of 10× working stock recombinant human GM-CSF was added to a final concentration of 5 ng/ml. For the JAK1/2 phospho-STAT1 assay, 15 μl of 10× working stock of recombinant human IFNγ was added to a final concentration of 10 ng/ml. For the JAK2/TYK2 phospho-STAT4 assay, 15 μl of 10× working stock of recombinant human IL-12 was added to a final concentration of 1.7 ng/ml. Plates were then placed back on the plate shaker in the incubator for an additional 5, 5, 10, and 25 minutes respectively upon which the plates were removed from the incubator, sealed with a plate sealer and the cells pelleted at 400×g for 5 minutes. After pelleting, the media was removed by aspiration and the cells were lysed in assay specific cell lysis buffer. The levels of phospho-STATS were determined using a Phospho (Tyr694) STAT5a,b Whole Cell Lysate kit from Meso Scale Discovery. Levels of phospho-STAT1 were determined using a CST-PathScan Phospho-STAT1 (Tyr701) Sandwich ELISA kit. Levels of phospho-STAT4 were determined using a Phospho-STAT4 (Tyr693) Whole Cell Lysate kit from Meso Scale Discovery.
# [2] = tested on: IFNγ stimulated STAT1 phosphorylation on Tyr701 (JAK1/2); test: JAK1/2 cellular target modulation: IFNγ stimulated phospho-STAT1 in PBMC; assay type: cell-based; conditions: human PBMC, IFNγ 10 ng/ml; read-out: Infγ-STAT1 IC50
# Description: as §4, §5
# [3] = tested on: IL-12 stimulated STAT4 phosphorylation on Tyr693 (JAK2/TYK2); test: JAK2/TYK2 cellular target modulation: IL-12 stimulated phospho-STAT4 in PBMC; assay type: cell-based; conditions: human PBMC, IL-12 1.7 ng/ml; read-out: IL12-STAT4 IC50
# Description: as §4, §5
# Chain of JAK3 (a.a. 781-1124) (P52333 781-1124): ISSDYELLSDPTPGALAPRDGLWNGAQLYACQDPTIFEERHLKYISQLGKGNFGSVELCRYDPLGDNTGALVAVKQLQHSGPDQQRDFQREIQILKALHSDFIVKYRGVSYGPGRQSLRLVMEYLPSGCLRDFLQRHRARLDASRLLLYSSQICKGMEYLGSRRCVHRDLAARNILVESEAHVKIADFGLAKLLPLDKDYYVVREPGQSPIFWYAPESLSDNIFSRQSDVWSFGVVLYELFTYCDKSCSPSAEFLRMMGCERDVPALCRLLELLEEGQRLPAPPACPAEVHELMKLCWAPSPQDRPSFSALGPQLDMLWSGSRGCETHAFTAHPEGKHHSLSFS
# Chain of Tyk-2 (P29597 whole entry): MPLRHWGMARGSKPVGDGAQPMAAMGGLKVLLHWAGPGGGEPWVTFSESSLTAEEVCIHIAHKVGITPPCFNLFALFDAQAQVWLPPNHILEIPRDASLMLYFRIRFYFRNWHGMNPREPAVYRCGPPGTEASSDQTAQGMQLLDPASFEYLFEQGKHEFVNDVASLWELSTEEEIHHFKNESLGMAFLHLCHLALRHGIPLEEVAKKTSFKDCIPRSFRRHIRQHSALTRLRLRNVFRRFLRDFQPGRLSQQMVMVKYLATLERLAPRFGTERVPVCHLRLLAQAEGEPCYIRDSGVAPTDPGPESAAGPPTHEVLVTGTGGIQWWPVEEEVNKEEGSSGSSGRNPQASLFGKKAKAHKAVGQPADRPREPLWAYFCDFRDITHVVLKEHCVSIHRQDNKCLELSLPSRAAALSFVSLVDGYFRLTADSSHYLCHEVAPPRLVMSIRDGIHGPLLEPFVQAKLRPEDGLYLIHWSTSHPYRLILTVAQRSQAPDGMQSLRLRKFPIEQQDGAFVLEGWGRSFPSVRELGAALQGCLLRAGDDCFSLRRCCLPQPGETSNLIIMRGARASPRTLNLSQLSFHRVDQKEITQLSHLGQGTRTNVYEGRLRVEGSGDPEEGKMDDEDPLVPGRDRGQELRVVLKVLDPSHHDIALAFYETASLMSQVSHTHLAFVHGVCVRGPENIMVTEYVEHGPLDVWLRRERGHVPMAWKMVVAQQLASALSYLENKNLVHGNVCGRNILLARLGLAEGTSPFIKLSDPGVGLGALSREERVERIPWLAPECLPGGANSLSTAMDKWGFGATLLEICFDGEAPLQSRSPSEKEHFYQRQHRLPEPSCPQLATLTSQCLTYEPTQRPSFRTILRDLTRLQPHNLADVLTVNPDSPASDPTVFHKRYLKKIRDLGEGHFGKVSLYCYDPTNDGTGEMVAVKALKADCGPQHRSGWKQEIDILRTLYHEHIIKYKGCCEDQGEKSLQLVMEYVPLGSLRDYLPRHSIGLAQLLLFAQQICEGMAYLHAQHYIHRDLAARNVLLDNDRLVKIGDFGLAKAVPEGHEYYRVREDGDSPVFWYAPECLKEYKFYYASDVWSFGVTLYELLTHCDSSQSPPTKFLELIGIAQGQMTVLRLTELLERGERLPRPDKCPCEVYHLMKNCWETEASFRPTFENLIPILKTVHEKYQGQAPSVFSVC
# Chain of JAK2 (O60674 whole entry): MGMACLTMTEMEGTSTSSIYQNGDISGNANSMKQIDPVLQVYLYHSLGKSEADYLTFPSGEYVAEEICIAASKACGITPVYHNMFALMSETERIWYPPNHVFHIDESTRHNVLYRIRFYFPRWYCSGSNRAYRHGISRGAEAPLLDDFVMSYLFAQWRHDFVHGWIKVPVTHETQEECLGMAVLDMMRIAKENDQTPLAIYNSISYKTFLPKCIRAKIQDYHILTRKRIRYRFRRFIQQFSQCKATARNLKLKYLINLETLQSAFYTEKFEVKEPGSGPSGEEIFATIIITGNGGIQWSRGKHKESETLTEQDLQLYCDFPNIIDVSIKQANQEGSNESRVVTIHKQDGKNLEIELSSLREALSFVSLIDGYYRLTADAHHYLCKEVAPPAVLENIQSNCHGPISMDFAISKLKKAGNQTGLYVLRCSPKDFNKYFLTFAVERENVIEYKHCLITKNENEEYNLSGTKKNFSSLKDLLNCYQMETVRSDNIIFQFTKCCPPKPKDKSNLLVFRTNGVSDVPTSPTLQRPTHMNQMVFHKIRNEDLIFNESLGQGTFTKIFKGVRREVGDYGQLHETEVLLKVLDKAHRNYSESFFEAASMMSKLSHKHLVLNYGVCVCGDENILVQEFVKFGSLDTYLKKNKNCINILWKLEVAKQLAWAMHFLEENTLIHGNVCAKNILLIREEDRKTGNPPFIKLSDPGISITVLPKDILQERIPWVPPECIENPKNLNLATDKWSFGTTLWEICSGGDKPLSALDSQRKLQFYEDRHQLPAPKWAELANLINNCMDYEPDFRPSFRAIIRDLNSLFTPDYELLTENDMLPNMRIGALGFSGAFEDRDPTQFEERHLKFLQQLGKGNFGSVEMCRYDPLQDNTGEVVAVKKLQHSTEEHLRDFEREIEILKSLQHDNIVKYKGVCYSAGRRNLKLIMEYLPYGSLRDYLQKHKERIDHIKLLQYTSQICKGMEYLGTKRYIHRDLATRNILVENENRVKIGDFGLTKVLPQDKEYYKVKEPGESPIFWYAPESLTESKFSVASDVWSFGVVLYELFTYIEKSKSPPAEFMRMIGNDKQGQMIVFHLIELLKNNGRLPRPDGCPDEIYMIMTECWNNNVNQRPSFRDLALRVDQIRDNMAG
# Chain of JAK1 (P23458 whole entry): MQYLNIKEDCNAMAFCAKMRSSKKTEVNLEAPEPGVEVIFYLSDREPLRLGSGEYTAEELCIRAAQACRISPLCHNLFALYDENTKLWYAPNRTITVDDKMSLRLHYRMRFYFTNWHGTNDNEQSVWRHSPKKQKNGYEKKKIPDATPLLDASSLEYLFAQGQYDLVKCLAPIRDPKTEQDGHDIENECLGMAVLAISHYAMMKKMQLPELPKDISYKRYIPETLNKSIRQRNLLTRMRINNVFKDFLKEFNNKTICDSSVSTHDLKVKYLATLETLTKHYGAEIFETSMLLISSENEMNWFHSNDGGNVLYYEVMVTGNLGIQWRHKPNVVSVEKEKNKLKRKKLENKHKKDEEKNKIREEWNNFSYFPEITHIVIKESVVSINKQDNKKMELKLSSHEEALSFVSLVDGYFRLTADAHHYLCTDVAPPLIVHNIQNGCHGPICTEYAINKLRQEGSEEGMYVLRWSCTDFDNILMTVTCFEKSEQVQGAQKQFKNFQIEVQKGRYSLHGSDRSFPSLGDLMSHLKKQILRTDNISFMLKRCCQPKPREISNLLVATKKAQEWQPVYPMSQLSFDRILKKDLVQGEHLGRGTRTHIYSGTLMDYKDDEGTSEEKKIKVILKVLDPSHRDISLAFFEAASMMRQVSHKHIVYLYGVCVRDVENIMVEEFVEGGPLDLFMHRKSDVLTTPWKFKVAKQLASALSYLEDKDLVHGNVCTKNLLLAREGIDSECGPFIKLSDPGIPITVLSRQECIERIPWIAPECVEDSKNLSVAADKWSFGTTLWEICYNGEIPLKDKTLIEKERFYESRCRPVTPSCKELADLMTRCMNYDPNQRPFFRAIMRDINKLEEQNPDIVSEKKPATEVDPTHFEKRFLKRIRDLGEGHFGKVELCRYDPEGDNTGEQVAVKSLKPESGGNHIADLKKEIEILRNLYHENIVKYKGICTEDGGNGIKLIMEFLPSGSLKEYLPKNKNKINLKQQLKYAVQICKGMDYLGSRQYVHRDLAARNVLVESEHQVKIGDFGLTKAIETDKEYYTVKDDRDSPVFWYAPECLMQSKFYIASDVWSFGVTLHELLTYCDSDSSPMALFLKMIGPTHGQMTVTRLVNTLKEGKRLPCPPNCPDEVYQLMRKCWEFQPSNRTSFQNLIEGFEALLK
SMILES,IC50 (JAK1) [µM],IC50 (JAK2) [µM],IC50 (JAK3 (a.a. 781-1124)) [µM],IC50 (Tyk-2) [µM],IC50 [1] [µM],IC50 [2] [µM],IC50 [3] [µM]
"N#CCC(=O)N1CCC[C@@H](Nc2c(-c3ncon3)cnc3[nH]ccc23)C1 [Example 38, (R)-3-(3-((5-(1,2,4-oxadiazol-3-yl)-1H-pyrrolo[2,3-b]pyridin-4-yl)amino)piperidin-1-yl)-3-oxopropanenitrile]",0.01 to 0.1,0.01 to 0.1,0.01 to 0.1,0.1 to 1,0.1 to 1,> 1,> 1
"Cc1ccc(-c2cnc3[nH]ccc3c2N[C@@H]2CCCN(C(=O)CC#N)C2)nc1 [Example 22, (R)-3-(3-((5-(5-methylpyridin-2-yl)-1H-pyrrolo[2,3-b]pyridin-4-yl)amino)piperidin-1-yl)-3-oxopropanenitrile]",0.01 to 0.1,0.01 to 0.1,0.01 to 0.1,0.01 to 0.1,0.1 to 1,0.1 to 1,> 1
"CS(=O)(=O)c1cccc(-c2cnc3[nH]ccc3c2N[C@@H]2CCCN(C(=O)CC#N)C2)c1 [Example 59, (R)-3-(3-((5-(3-(methylsulfonyl)phenyl)-1H-pyrrolo[2,3-b]pyridin-4-yl)amino)piperidin-1-yl)-3-oxopropanenitrile]",≤ 0.01,0.1 to 1,0.1 to 1,> 1,0.1 to 1,> 1,
"CC(=O)c1cnc(-c2cnc3[nH]ccc3c2N[C@@H]2CCCN(C(=O)CC#N)C2)o1 [Example 66, (R)-3-(3-((5-(5-acetyloxazol-2-yl)-1H-pyrrolo[2,3-b]pyridin-4-yl)amino)piperidin-1-yl)-3-oxopropanenitrile]",≤ 0.01,0.01 to 0.1,≤ 0.01,0.01 to 0.1,≤ 0.1,0.1 to 1,
"CNC(=O)c1cnc(-c2cnc3[nH]ccc3c2N[C@@H]2CCCN(C(=O)CC#N)C2)o1 [Example 39, (R)-2-(4-((1-(2-cyanoacetyl)piperidin-3-yl)amino)-1H-pyrrolo[2,3-b]pyridin-5-yl)-N-methyloxazole-5-carboxamide]",0.01 to 0.1,≤ 0.01,≤ 0.01,0.01 to 0.1,> 1,> 1,
"CNC(=O)c1csc(-c2cnc3[nH]ccc3c2N[C@@H]2CCCN(C(=O)CC#N)C2)n1 [Example 35, (R)-2-(4-((1-(2-cyanoacetyl)piperidin-3-yl)amino)-1H-pyrrolo[2,3-b]pyridin-5-yl)-N-methylthiazole-4-carboxamide]",≤ 0.01,0.01 to 0.1,≤ 0.01,0.01 to 0.1,0.1 to 1,,> 1
"N#CCC(=O)N1CCC[C@@H](Nc2c(-c3cscn3)cnc3[nH]ccc23)C1 [Example 1, (R)-3-oxo-3-(3-((5-(thiazol-4-yl)-1H-pyrrolo[2,3-b]pyridin-4-yl)amino)piperidin-1-yl)propanenitrile]",0.01 to 0.1,0.01 to 0.1,0.01 to 0.1,0.01 to 0.1,0.1 to 1,0.1 to 1,
"N#CCC(=O)N1CCC[C@@H](Nc2c(-c3nc(C(N)=O)co3)cnc3[nH]ccc23)C1 [Example 14, (R)-2-(4-((1-(2-cyanoacetyl)piperidin-3-yl)amino)-1H-pyrrolo[2,3-b]pyridin-5-yl)oxazole-4-carboxamide]",≤ 0.01,0.01 to 0.1,≤ 0.01,0.01 to 0.1,0.1 to 1,> 1,
"CNCCOc1cccc(-c2cnc3[nH]ccc3c2N[C@@H]2CCCN(C(=O)CC#N)C2)n1 [Example 58, (R)-3-(3-((5-(6-(2-(methylamino)ethoxy)pyridin-2-yl)-1H-pyrrolo[2,3-b]pyridin-4-yl)amino)piperidin-1-yl)-3-oxopropanenitrile hydrochloride]",≤ 0.01,0.1 to 1,0.01 to 0.1,0.1 to 1,0.1 to 1,> 1,
"N#CCC(=O)N1CCC[C@@H](Nc2c(-c3nnc[nH]3)cnc3[nH]ccc23)C1 [Example 11, (R)-3-(3-((5-(4H-1,2,4-triazol-3-yl)-1H-pyrrolo[2,3-b]pyridin-4-yl)amino)piperidin-1-yl)-3-oxopropanenitrile]",0.01 to 0.1,0.01 to 0.1,0.01 to 0.1,0.1 to 1,> 1,> 1,
"O[C@H]1CC[C@@H](Nc2c(-c3ccccn3)cnc3[nH]ccc23)C1 [Example 12, (1S,3R)-3-((5-(pyridin-2-yl)-1H-pyrrolo[2,3-b]pyridin-4-yl)amino)cyclopentan-1-ol]",0.1 to 1,0.1 to 1,0.01 to 0.1,0.1 to 1,0.1 to 1,> 1,
"Cc1ncc(-c2cnc3[nH]ccc3c2N[C@@H]2CCCN(C(=O)CC#N)C2)s1 [Example 3, (R)-3-(3-((5-(2-methylthiazol-5-yl)-1H-pyrrolo[2,3-b]pyridin-4-yl)amino)piperidin-1-yl)-3-oxopropanenitrile]",0.01 to 0.1,0.1 to 1,0.01 to 0.1,0.1 to 1,0.1 to 1,> 1,
